Data set [1] deals with Transformed lymphocytes derived from involved skin of IL-7 transgenic mice (lymphoproliferative disease similar to human cutaneous T-cell lymphoma). In words: Topical treatment of mice with lymphoproliferative skin disease (CTCL model), histopathologic examination. The conditions noted are these: daily, fourteen days of therapy, versus vehicle control, FIG. 14. It is filed as in vivo. The source says: FIG. 14. Interleukin-7 is a growth factor for T-cell development, in particular the gamma-delta subset. Transgenic mice overexpressing IL-7 in keratinocytes were developed by the laboratories of Thomas Kupper and Benjamin Rich, using a tissue-specific keratin-14 promoter element. These mice have been reported to develop a characteristic lymphoproliferative skin disease grossly and histologically similar to human cutaneous T-cell lymphoma (CTCL). Transformed lymphocytes derived from involved skin were passaged ex vivo and injected into syngeneic (non-transgenic) mice. After fourteen days, these mice develop a homogeneous lymphoproliferative disease. Two cohorts of five mice were included in a prospective study of topical, daily suberoyl hydroxamic acid phenyl ester (SAHP, also known as SHAPE) versus vehicle control. After fourteen days of therapy, mice were sacrificed and the treated region was dissected for histopathologic examination.

Data set [2] has as its system acetylated histones (AcH3K18). The data set is described as follows: Pharmacodynamic effect by immunohistochemical staining for acetylated histones. The conditions noted are these: SAHP-treated mice compared to vehicle treated controls; FIG. 15. It is filed as in vivo.
Data set [3] is described as follows: Degradation of SAHP in serum. Format: in vitro ADME. As to the method:
In less than 15 minutes, SAHP is completely degraded.
In less than 2 minutes, SAHP is completely degraded into phenol and the corresponding carboxylic acid.

Structures are written as SMILES.

On to `O=C(CCCCCCC(=O)Oc1ccccc1)NO` [SAHP, suberoyl hydroxamic acid phenyl ester], for which, in data set [1], the “lymphomatous infiltration within the treated window (hematoxylin-eosin staining)” value is “marked reduction in lymphomatous infiltration”. In data set [2], the “AcH3K18 staining (histone hyperacetylation) in treated skin” value was “hyperacetylated histone staining at the margin of compound treatment, with absent nuclear staining in the region of drug response”. In addition, the “time until SAHP is completely degraded in serum” value in data set [3] (FIG. 6) is on record as “less than 15 minutes”. Further, the “time until SAHP is completely degraded into phenol and the corresponding carboxylic acid” value in data set [3] (more detailed study, FIG. 7) is given as “less than 2 minutes”.

(Values after patent US10172821B2, “Histone deacetylase inhibitors” (President & Fellows of Harvard College, priority 2006, dated 2019).)
